Laboratory results published in publication PMC8445847 (iScience, 2021).
Read-outs that look alike come from different tables or passages of the source.

Columns and labels:
JeKo-1 cells [1] = test: Alamar Blue cell viability assay; assay type: cell-based, human; conditions: read-out: antiproliferative IC50 JeKo-1
Mino cells [2] = test: Alamar Blue cell viability assay; assay type: cell-based, human; conditions: 48 h, read-out: antiproliferative IC50 Mino
[3] = system: Ibrutinib-resistant Granta cells; test: Alamar Blue cell viability assay; assay type: cell-based; conditions: Homo sapiens, 48 h, read-out: antiproliferative IC50 Granta
JeKo-1 cells [4] = test: Annexin V/propidium iodide apoptosis assay; assay type: cell-based, human; conditions: up to 5 μM, 24 h, Annexin V/PI
Mino cells [5] = test: Annexin V/propidium iodide apoptosis assay; assay type: cell-based, human; conditions: up to 5 μM, 24 h, Annexin V/PI
Z-138 cells = test: Annexin V/propidium iodide apoptosis assay; assay type: cell-based, human; conditions: up to 5 μM, 24 h, Annexin V/PI
JeKo-1 and Mino cells = test: apoptosis after drug washout; assay type: cell-based, human; conditions: 5 μM, treated 4 or 8 h, analyzed 16 or 20 h post washout
[6] = system: pPLCγ2(Y759) in JeKo-1 cells; test: Western blot of IgM-stimulated cells; assay type: cell-based, human; conditions: IgM-stimulated JeKo-1 cells, 1 hr
[7] = relapsed-refractory MCL; ref Byrd et al., 2013; Sarkozy and Ribrag, 2020; cited from earlier work
[8] = system: BRD4 occupancy at the cMYC promoter in JeKo-1 cells; test: BRD4 ChIP assay at the cMYC promoter; assay type: cell-based, human; conditions: 1 μM, 24 h
BTK = BTK (Homo sapiens, UniProt Q06187); test: in vitro kinase assay; assay type: biochemical; conditions: read-out: IC50 BTK
PI3Kα = PI3Kα (Homo sapiens, UniProt P42336); test: in vitro kinase assay; assay type: biochemical; conditions: read-out: IC50 PI3Kα
PI3Kδ = PI3Kδ (Homo sapiens, UniProt O00329); test: in vitro kinase assay; assay type: biochemical; conditions: read-out: IC50 PI3Kδ
BRD4 BD1 [9] = target: BRD4 BD1 (Homo sapiens, UniProt O60885); test: Alpha Screen assay against tetra-acetylated histone H4 peptide; assay type: binding; conditions: read-out: IC50 BRD4 BD1
BRD4 BD2 [10] = target: BRD4 BD2 (Homo sapiens, UniProt O60885); test: as above; assay type: binding; conditions: read-out: IC50 BRD4 BD2
JeKo-1 BTK-WT cells = test: cell viability assay, engineered BTK cell lines; assay type: cell-based, human
JeKo-1 BTK-C481S cells = test: cell viability assay, engineered BTK cell lines; assay type: cell-based, human; conditions: read-out: IC50 JeKo-1 BTK-C481S; 48 h, Ibrutinib-resistant BTK-C481S
Mino BTK-WT cells = test: cell viability assay, engineered BTK cell lines; assay type: cell-based, human; conditions: read-out: IC50 Mino BTK-WT; 48 h
Mino BTK-C481S cells = test: cell viability assay, engineered BTK cell lines; assay type: cell-based, human; conditions: read-out: IC50 Mino BTK-C481S; 48 h, Ibrutinib-resistant BTK-C481S
[11] = system: JeKo-1 chronic Ibrutinib-resistant cell line; test: Cell titer Glow viability assay; assay type: cell-based, human
JeKo-1 cells [12] = test: cell cycle analysis; assay type: cell-based, human; conditions: JeKo-1, 1–5 μM, 24 h
[13] = system: pBTK(Y223) and pAKT(S473) in Mino cells; test: Western blot of IgM-stimulated cells; assay type: cell-based, human; conditions: 1 hr
[14] = system: cMYC, BCL2 and HEXIM1 expression in JeKo-1 and Mino cells; test: qRT-PCR of BRD4 target genes; assay type: cell-based, human; conditions: 1 and 2.5 μM, 24 hr
[15] = system: cMYC protein in Jeko-1 and Mino cells; test: Western blot of cMYC; assay type: cell-based, human
BRD4 BD1 [16] = test: NMR titration; assay type: binding; conditions: 15N-labeled protein, PBS pH 6.8
BRD4 BD2 [17] = test: NMR titration; assay type: binding; conditions: 15N-labeled protein, PBS pH 6.8
JeKo-1 MCL tumors = test: JeKo-1 MCL xenograft tumor model; assay type: in vivo; conditions: 60 mg/kg daily by oral gavage; SRX3262 vs Ibrutinib-treated mice
[18] = system: JeKo-1 BTK-WT, JeKo-1 BTK-C481S and Mino BTK-C481S cells; conditions: up to 5 μM
[19] = system: BTK and AKT phosphorylation in Mino cells; test: inhibitor washout assay; conditions: 1 h treatment, 24 h post washout

Sequence of PI3Kα (P42336 whole entry): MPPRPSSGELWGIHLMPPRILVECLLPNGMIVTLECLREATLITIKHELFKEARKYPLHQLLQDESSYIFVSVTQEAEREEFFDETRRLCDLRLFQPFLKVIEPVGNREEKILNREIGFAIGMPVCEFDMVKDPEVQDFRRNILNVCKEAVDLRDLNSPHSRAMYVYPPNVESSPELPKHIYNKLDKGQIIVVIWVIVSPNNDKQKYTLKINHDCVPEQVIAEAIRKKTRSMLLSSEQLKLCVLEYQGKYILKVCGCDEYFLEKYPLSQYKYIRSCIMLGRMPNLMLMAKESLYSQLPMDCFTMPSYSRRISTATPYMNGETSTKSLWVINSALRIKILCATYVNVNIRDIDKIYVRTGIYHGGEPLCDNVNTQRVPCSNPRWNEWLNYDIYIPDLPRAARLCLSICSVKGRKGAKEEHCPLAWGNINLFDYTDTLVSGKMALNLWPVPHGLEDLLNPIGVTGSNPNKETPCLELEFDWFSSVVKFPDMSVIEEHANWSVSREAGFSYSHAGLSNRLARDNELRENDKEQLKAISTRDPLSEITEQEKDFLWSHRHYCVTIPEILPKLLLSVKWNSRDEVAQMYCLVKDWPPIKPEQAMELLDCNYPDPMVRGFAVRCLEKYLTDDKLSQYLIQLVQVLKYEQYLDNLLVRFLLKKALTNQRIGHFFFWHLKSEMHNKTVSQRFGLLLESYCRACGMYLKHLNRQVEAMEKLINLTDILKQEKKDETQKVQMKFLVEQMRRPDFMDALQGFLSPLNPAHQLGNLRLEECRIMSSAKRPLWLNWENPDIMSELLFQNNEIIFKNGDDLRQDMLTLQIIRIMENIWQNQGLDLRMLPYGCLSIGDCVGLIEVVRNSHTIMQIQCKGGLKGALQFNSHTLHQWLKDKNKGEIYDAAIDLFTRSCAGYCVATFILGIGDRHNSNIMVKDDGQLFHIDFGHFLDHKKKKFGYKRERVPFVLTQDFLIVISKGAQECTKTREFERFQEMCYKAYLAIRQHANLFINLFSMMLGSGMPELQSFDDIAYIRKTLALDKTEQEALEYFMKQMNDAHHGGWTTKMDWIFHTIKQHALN
Sequence of PI3Kα (P27986 whole entry partner): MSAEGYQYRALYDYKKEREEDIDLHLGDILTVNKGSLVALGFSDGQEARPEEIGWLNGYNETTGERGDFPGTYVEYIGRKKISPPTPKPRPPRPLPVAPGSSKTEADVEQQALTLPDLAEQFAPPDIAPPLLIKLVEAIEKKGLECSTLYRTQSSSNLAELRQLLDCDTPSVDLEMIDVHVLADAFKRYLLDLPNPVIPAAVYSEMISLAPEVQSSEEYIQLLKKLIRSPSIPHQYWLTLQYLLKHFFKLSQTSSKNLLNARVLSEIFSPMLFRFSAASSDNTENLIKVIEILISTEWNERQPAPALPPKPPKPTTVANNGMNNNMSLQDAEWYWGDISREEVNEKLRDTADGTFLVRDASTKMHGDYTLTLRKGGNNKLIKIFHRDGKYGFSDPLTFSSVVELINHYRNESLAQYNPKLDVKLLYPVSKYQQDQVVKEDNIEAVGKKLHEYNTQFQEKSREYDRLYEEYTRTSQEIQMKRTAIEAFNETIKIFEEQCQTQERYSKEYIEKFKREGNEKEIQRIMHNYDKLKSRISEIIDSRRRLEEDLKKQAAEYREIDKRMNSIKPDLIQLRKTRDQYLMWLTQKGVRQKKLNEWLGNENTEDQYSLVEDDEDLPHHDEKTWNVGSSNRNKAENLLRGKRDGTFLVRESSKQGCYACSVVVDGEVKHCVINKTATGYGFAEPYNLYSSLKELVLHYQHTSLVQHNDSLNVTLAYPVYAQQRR
Sequence of PI3Kδ (O00329 whole entry): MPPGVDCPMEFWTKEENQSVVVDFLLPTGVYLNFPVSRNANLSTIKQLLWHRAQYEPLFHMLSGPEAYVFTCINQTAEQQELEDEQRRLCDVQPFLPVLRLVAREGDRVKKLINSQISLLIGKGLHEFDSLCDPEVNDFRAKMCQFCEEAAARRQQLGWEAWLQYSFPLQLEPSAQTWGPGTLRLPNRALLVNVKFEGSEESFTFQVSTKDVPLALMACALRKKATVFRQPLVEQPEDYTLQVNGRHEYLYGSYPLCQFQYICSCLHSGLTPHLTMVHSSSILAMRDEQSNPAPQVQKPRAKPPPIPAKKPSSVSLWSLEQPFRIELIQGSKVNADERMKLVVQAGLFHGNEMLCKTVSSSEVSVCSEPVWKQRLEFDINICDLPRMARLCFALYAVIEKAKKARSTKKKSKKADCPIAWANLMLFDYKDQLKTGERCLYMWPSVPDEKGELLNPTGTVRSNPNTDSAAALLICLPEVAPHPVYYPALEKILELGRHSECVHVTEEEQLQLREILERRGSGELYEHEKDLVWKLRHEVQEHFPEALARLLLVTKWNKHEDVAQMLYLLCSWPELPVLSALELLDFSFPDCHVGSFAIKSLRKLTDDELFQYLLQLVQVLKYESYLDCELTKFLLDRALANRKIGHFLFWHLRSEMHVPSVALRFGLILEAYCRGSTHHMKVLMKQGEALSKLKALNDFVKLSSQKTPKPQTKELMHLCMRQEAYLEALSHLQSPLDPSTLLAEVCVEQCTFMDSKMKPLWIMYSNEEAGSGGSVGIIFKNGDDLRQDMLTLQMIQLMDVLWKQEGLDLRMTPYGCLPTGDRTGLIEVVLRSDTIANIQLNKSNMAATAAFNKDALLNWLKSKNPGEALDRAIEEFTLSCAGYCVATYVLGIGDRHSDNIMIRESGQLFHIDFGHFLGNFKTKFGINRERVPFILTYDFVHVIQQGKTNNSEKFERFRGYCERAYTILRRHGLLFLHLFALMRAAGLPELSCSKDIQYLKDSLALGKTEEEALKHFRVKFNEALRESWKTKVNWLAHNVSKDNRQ
Sequence of PI3Kδ (P27986 whole entry partner): as the sequence (P27986 whole entry partner) above
Sequence of BTK (Q06187 whole entry): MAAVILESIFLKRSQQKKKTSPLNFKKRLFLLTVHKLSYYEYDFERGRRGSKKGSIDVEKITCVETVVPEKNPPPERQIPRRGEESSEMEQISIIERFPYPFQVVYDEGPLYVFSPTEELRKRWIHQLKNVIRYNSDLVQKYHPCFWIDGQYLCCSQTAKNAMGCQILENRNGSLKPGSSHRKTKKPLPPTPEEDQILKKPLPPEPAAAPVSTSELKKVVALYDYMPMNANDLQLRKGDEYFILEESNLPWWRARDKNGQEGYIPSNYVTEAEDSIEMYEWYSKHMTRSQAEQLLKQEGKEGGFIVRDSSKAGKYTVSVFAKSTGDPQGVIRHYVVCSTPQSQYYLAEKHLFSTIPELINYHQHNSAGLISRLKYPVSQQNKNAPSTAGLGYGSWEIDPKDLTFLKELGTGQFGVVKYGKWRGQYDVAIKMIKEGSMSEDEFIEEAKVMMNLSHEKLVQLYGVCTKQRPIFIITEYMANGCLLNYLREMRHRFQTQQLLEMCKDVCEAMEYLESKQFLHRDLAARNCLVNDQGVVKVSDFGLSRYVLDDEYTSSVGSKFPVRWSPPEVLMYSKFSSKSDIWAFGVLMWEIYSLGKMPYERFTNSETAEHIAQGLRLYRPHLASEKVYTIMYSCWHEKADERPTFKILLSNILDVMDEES

SMILES: C=CC(=O)N1CCC[C@@H](n2nc(-c3ccc(Oc4ccccc4)cc3)c3c(N)ncnc32)C1 [Ibrutinib, reference compound]
- IC50 (JeKo-1 cells [1]; Homo sapiens, JeKo-1, 48 h): 8000 nM
- IC50 (Mino cells [2]; Homo sapiens, MINO): 6500 nM
- IC50 [3]: 20000 nM
- apoptosis JeKo-1 (JeKo-1 cells [4]): no effect
- apoptosis Mino (Mino cells [5]): mild effect
- apoptosis Z-138 (Z-138 cells): mild effect
- cells undergoing apoptosis after drug washout (JeKo-1 and Mino cells): 20–30%
- phosphorylation of PLCγ2 [6]: inhibited phosphorylation of PLCγ2
- complete response [7]: 23%
- objective response rate [7]: 68%

SMILES: Cc1sc2c(c1C)C(c1ccc(Cl)cc1)=N[C@@H](CC(=O)OC(C)(C)C)c1nnc(C)n1-2 [JQ1, reference compound]
- BRD4 localization at the cMYC promoter site [8]: decreased

SMILES: C=CC(=O)N1CCOc2ccc(-c3csc4c(=O)cc(N5CCOCC5)oc34)cc21 [SRX3262]
- IC50 (BTK): 35 nM
- IC50 (PI3Kα): 64 nM
- IC50 (PI3Kδ): 16 nM
- IC50 (BRD4 BD1 [9]): 228 nM
- IC50 (BRD4 BD2 [10]): 348 nM
- IC50 (JeKo-1 cells [1]; Alamar Blue, 48 h): 620 nM
- IC50 (Mino cells [2]; Alamar Blue): 130 nM
- times more effective than Ibrutinib (JeKo-1 BTK-WT cells; both JeKo-1 BTK-WT and JeKo-1 BTK-C481S cells): 20–27 times
- IC50 (JeKo-1 BTK-WT cells; read-out: IC50 JeKo-1 BTK-WT, 48 h): 550 nM
- IC50 (JeKo-1 BTK-C481S cells): 730 nM
- IC50 (Mino BTK-WT cells): 690 nM
- IC50 (Mino BTK-C481S cells): 380 nM
- decrease in cell viability compared to Ibrutinib [11]: 3–6 times
- apoptosis JeKo-1 (JeKo-1 cells [4]): dramatically increased apoptosis
- apoptosis Mino (Mino cells [5]): dramatically increased apoptosis
- apoptosis Z-138 (Z-138 cells): dramatically increased apoptosis
- cells undergoing apoptosis after drug washout (JeKo-1 and Mino cells): 40–70%
- cell cycle arrest (JeKo-1 cells [12]): induced G2 phase cell cycle arrest
- phosphorylation of S473 in AKT [13]: inhibited phosphorylation
- phosphorylation of Y223 in BTK [13]: inhibited phosphorylation
- phosphorylation of PLCγ2 [6]: inhibited phosphorylation of PLCγ2
- BRD4 localization at the cMYC promoter site [8]: decreased
- expression of HEXIM1 [14]: increase of expression of HEXIM1
- expression of cMYC and BCL2 [14]: decrease of expression
- cMYC protein level [15]: decreased the cMYC protein level
- binding to BRD4 BD1 (chemical shift perturbations) (BRD4 BD1 [16]): binds to both BD1 and BD2
- binding to BRD4 BD2 (chemical shift perturbations) (BRD4 BD2 [17]): binds to both BD1 and BD2
- body weight (JeKo-1 MCL tumors): did not observe any notable changes in body weight
- apoptosis in BTK-WT and Ibrutinib-resistant BTK-C481S cells [18]: increase in apoptotic cell death
- AKT phosphorylation after inhibitor washout [19]: sustained inhibition of AKT phosphorylation
